Where a SMILES comes first, the peptide text is derived from it. The star is where a group is joined. Cbz = O=C(OCc1ccccc1)*

This is an account of results in ChEMBL document CHEMBL1127109, “Thiol and hydroxamic acid containing inhibitors of endothelin converting enzyme” (Bioorg Med Chem Lett, 1993).

Assay [1] deals with T1, Endothelin-converting enzyme 1 (Homo sapiens) (UniProt P42892).
T1 sequence (whole entry): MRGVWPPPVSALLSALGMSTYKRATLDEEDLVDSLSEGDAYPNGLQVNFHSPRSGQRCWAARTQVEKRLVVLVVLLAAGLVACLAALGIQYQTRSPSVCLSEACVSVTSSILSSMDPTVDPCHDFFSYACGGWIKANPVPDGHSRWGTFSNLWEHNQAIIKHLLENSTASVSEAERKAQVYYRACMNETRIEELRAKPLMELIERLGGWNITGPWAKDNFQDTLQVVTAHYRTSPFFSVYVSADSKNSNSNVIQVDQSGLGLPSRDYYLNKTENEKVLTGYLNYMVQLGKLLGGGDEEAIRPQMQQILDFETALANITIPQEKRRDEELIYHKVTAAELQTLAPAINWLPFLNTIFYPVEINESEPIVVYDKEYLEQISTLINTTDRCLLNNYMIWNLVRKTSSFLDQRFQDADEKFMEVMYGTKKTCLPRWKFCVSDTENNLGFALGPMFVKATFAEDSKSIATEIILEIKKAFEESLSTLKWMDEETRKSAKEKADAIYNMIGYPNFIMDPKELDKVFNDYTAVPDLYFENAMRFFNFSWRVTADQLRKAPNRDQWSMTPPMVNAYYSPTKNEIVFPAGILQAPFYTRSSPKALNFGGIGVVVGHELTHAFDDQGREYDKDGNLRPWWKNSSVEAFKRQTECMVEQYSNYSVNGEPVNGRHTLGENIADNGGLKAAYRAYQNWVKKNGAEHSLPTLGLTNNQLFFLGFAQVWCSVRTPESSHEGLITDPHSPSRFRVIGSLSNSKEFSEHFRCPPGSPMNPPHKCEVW
The experiment in a line: Compound was tested in vitro for percent inhibition of a putative Endothelin-converting enzyme at 100 uM partially purified from rabbit lung membrane. The assay is classed as tissue-based. The settings on record: Oryctolagus cuniculus, target entry is the homologue from another species.

The target in another assay is T2, Thermolysin (Bacillus thermoproteolyticus, UniProt P00800).
T2 sequence (P00800 whole entry): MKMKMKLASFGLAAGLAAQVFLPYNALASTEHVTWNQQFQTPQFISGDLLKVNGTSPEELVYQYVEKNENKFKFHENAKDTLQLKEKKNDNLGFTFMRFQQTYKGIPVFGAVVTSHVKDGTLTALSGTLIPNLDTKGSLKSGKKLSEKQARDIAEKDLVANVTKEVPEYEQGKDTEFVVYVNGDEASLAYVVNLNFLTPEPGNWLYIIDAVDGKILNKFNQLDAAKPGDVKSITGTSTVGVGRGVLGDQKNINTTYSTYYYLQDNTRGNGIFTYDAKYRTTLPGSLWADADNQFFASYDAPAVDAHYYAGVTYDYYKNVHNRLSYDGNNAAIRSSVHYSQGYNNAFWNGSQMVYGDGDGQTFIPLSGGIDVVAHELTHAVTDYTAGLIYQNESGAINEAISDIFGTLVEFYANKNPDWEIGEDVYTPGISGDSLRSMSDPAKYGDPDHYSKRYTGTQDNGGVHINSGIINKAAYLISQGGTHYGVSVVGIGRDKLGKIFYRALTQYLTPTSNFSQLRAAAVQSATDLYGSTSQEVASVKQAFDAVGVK
The experiment in a line: Compound was tested in vitro for inhibitory activity against thermolysin.

`CC(C)C[C@H](NC(=O)[C@H](CS)NC(=O)OCc1ccccc1)C(=O)N[C@@H](Cc1c[nH]c2ccccc12)C(=O)O` (Cbz-Cys-Leu-Trp-OH) registered an inhibition in assay [1] of 75%.

In the case of `COC(=O)[C@H](CC(C)C)NC(=O)[C@H](CS)NC(=O)OCc1ccccc1`, in assay [1], the inhibition worked out at 89%.

`CC(C)C[C@H](C(=O)NO)C(=O)N[C@@H](C)C(=O)NCC(N)=O` gave an IC50 on Thermolysin of 64 nM.

For the compound `COC(=O)[C@H](Cc1c[nH]c2ccccc12)NC(=O)[C@H](CC(C)C)NC(=O)[C@H](CS)NC(=O)OCc1ccccc1` (Cbz-Cys-Leu-Trp-OMe), the inhibition in assay [1] came to 83%.

For the compound `O=C(N[C@@H](CS)C(=O)N[C@@H](Cc1c[nH]c2ccccc12)C(=O)O)OCc1ccccc1` (Cbz-Cys-Trp-OH), the inhibition in assay [1] amounted to 90%.

On to `COC(=O)[C@H](Cc1c[nH]c2ccccc12)NC(=O)[C@H](CS)NC(=O)OCc1ccccc1` (Cbz-Cys-Trp-OMe), for which the inhibition in assay [1] worked out at 93%.

Usually inhibition stands for the drop in the measured response relative to a control, in per cent. As a reminder, the IC50 is the midpoint of a concentration-inhibition curve. Higher therefore signals weaker potency.
